Assay results from patent US8569313B2, “Meta-substituted phenyl sulfonyl amides of secondary amino acid amides, the production thereof, and use thereof as matriptase inhibitors” (The Medicines Company (Leipzig) GmbH, priority 2007, dated 2013).

What follows are compounds tested against matriptase (Homo sapiens (Human), UniProt Q9Y5Y6) (assay: Determination of the matriptase inhibition (chromogenic substrate CH3SO2-D-Cha-Gly-Arg-pNA, Dixon Ki)). Conditions: 25° C., pH 8.0; means of at least two determinations.
Assay type: biochemical
Experimental: Determination of the Matriptase Inhibition
To determine the inhibition effect, 200 μl Tris buffer (inhibitor contains 0.05 M, 0.154 M NaCl, 5% ethanol, pH 8.0), 25 μl substrate (CH3SO2-D-Cha-Gly-Arg-pNA; 2 and 1 mM) and 50 μl matriptase (0.5 μg/ml) were incubated at 25° C. After 3 min the reaction was halted through the addition of 25 μl acetic acid (50%) and the Absorption determined at 405 nm by means of a Microplate Reader (Multiscan Ascent from the company Thermo Electron Corporation). The Ki values were calculated according to Dixon (Biochem. J. 55, 170-171, 1953) through linear regression by means of a computer program. The Ki-values are the means of at least two determinations.
Ki value for the inhibition of matriptase in nM (n.d.=not determined)

Sequence of matriptase (Q9Y5Y6 whole entry): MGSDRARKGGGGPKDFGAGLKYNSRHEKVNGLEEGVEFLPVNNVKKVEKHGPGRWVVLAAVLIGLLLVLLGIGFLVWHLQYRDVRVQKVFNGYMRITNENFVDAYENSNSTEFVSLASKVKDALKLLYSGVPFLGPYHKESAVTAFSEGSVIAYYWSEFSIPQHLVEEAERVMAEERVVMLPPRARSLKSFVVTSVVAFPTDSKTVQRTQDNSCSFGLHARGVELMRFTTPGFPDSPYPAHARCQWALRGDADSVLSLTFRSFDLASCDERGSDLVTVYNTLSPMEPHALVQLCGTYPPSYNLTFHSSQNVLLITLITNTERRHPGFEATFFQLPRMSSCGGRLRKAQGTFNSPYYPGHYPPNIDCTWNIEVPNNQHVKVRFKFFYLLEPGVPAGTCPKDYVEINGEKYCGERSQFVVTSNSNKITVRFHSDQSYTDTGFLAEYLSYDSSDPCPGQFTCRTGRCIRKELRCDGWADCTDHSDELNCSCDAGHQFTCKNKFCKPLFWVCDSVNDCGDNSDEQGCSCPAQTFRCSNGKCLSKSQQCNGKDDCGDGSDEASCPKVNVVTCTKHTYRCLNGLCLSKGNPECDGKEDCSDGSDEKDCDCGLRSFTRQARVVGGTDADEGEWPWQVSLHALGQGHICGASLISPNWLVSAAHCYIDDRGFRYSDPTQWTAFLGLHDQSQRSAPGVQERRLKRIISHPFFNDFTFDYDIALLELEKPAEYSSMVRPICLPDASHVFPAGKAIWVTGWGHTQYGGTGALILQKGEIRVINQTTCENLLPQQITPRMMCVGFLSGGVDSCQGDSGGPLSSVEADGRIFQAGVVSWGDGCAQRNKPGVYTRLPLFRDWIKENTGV

| Compound | Ki [nM] |
| --- | --- |
| N=C(N)c1cccc(CC(NS(=O)(=O)c2cccc(-c3ccccc3Cl)c2)C(=O)N2CCC(CCN)CC2)c1 (stereo not drawn) [Inhibitor 9] | 29 |
| N=C(N)c1cccc(CC(NS(=O)(=O)c2cccc(-c3cccnc3)c2)C(=O)N2CCC(CCN)CC2)c1 (stereo not drawn) [Inhibitor 11] | 47 |
| Cc1nccc(-c2cccc(S(=O)(=O)N[C@@H](Cc3cccc(C(=N)N)c3)C(=O)N3CCC(CCN)CC3)c2)n1 [Inhibitor 12] | 28 |
| N=C(N)c1cccc(CC(NS(=O)(=O)c2cccc(C3CCC(N)=NC3)c2)C(=O)N2CCC(CCN)CC2)c1 (stereo not drawn) [Inhibitor 15] | 0.069 |
| N=C(N)c1cccc(C[C@H](NS(=O)(=O)c2cccc(CCCCN)c2)C(=O)N2CCC(CCN)CC2)c1 [Inhibitor 16, 3-(1-aminobutyl)-phenyl sulfonyl-Phe(3-Amidino)-4-(2-aminoethyl)piperidide] | 0.74 |
| COC(=O)CCCC1CCN(C(=O)[C@H](Cc2cccc(C(=N)N)c2)NS(=O)(=O)c2cccc(NC(=O)CCN)c2)CC1 [Inhibitor 20] | 6.1 |
| N=C(N)c1cccc(C[C@H](NS(=O)(=O)c2cccc(NC(=O)CCN)c2)C(=O)N2CCC(CCCC(N)=O)CC2)c1 [Inhibitor 21] | 11.8 |
| N=C(N)c1cccc(C[C@H](NS(=O)(=O)c2cccc(NC(=O)CCN)c2)C(=O)N2CCC(CCCC(=O)O)CC2)c1 [Inhibitor 22] | 255 |
| N=C(N)c1cccc(C[C@H](NS(=O)(=O)c2cccc(NC(=O)CCN)c2)C(=O)N2CCC(C(N)=O)CC2)c1 [Inhibitor 23] | 12.1 |
| N=C(N)c1cccc(C[C@H](NS(=O)(=O)c2cccc(NC(=O)CCN)c2)C(=O)N2CCCC(C(N)=O)C2)c1 (stereo partly drawn) [Inhibitor 24] | 30.5 |
| N=C(N)c1cccc(C[C@H](NS(=O)(=O)c2cccc(NC(=O)CCN)c2)C(=O)N2CCN(C(=O)OCc3ccccc3)CC2)c1 [Inhibitor 26] | 6.1 |
| N=C(N)c1cccc(C[C@H](NS(=O)(=O)c2cccc(NC(=O)CCN)c2)C(=O)N2CCNCC2)c1 [Inhibitor 27] | 36 |
| N=C(N)c1cccc(C[C@H](NS(=O)(=O)c2cccc(NC(=O)CCN)c2)C(=O)N2CCCCC2)c1 [Inhibitor 28] | 32 |
| NCCC(=O)Nc1cccc(S(=O)(=O)N[C@@H](Cc2cccc(CN)c2)C(=O)N2CCC(CCN)CC2)c1 [Inhibitor 34, H-βAla-3-NH-phenyl sulfonyl-Phe(3-Ame)-(2-aminoethyl)piperidide] | 56 |
| COc1ccc(-c2cccc(S(=O)(=O)NC(Cc3cccc(CN)c3)C(=O)N3CCC(CCN)CC3)c2)cc1 (stereo not drawn) [Inhibitor 35] | 145 |
| NCCC(=O)Nc1cccc(S(=O)(=O)N[C@@H](Cc2cccc(CN)c2)C(=O)N2CCN(C(=O)OCc3ccccc3)CC2)c1 [Inhibitor 36] | 44.5 |
| N=C(N)c1cccc(C[C@H](NS(=O)(=O)c2cccc(NC(=O)CCO)c2)C(=O)N2CCC(CCN)CC2)c1 [Inhibitor 37] | 117 |
| N=C(N)c1cccc(C[C@H](NS(=O)(=O)c2cccc(NC(=O)C3CNC3)c2)C(=O)N2CCC(CCN)CC2)c1 [Inhibitor 40] | 1.7 |
| N=C(N)c1cccc(C[C@H](NS(=O)(=O)c2cccc(NC(=O)CCN)c2)C(=O)N2CCC(C(=O)OCc3ccccc3)CC2)c1 [Inhibitor 48] | 0.7 |
| H-βAla-3-NH-phenyl sulfonyl-Phe(3-Am)-4-piperidyl-(CH2)3—CONH—(CH2)2-PEG10000-CH3 [Inhibitor 50] | 54 |

Further lines, results first:

| Ki [nM] | Compound |
| --- | --- |
| 5.4 | COc1ccc(-c2cccc(S(=O)(=O)NC(Cc3cccc(C(=N)N)c3)C(=O)N3CCC(CCN)CC3)c2)cc1OC (stereo not drawn) [Inhibitor 1, 3-(3,4-dimethoxyphenyl)phenyl sulfonyl-d/l-Phe(3-Am)-4-(2-aminoethyl)piperidide] |
| 100 | N=C(N)c1cccc(CC(NS(=O)(=O)c2cccc(-c3ccccc3)c2)C(=O)N2CCC(CCN)CC2)c1 (stereo not drawn) [Inhibitor 2] |
| 6 | COc1ccc(-c2cccc(S(=O)(=O)NC(Cc3cccc(C(=N)N)c3)C(=O)N3CCC(CCN)CC3)c2)cc1 (stereo not drawn) [Inhibitor 3] |
| 5.4 | CCOc1ccc(-c2cccc(S(=O)(=O)NC(Cc3cccc(C(=N)N)c3)C(=O)N3CCC(CCN)CC3)c2)cc1 (stereo not drawn) [Inhibitor 4] |
| 2.5 | CCc1ccc(-c2cccc(S(=O)(=O)NC(Cc3cccc(C(=N)N)c3)C(=O)N3CCC(CCN)CC3)c2)cc1 (stereo not drawn) [Inhibitor 5] |
| 12 | CC(C)Oc1ccc(-c2cccc(S(=O)(=O)NC(Cc3cccc(C(=N)N)c3)C(=O)N3CCC(CCN)CC3)c2)cc1 (stereo not drawn) [Inhibitor 6] |
| 26 | N=C(N)c1cccc(CC(NS(=O)(=O)c2cccc(-c3ccc(Cl)cc3)c2)C(=O)N2CCC(CCN)CC2)c1 (stereo not drawn) [Inhibitor 7] |
| 91 | N=C(N)c1cccc(CC(NS(=O)(=O)c2cccc(-c3cccc(Cl)c3)c2)C(=O)N2CCC(CCN)CC2)c1 (stereo not drawn) [Inhibitor 8] |
| 60 | N=C(N)c1cccc(CC(NS(=O)(=O)c2cccc(-c3ccncc3)c2)C(=O)N2CCC(CCN)CC2)c1 (stereo not drawn) [Inhibitor 10] |
| 13 | N=C(N)c1cccc(CC(NS(=O)(=O)c2cccc(-c3ccc4[nH]ccc4c3)c2)C(=O)N2CCC(CCN)CC2)c1 (stereo not drawn) [Inhibitor 13] |
| 4.2 | N=C(N)c1cccc(CC(NS(=O)(=O)c2cccc(-c3ccc(N)nc3)c2)C(=O)N2CCC(CCN)CC2)c1 (stereo not drawn) [Inhibitor 14] |
| 6.3 | CNC(=O)CCCC1CCN(C(=O)[C@H](Cc2cccc(C(=N)N)c2)NS(=O)(=O)c2cccc(NC(=O)CCN)c2)CC1 [Inhibitor 17, N-(3-β-Ala)amidophenyl sulfonyl-Phe(3-Am)-piperidine buteryl-N-methylamide] |
| 8.1 | CCOc1ccc(-c2cccc(S(=O)(=O)N[C@@H](Cc3cccc(C(=N)N)c3)C(=O)N3CCC(CCCC(=O)NC)CC3)c2)cc1 [Inhibitor 18] |
| 24.5 | CCc1ccc(-c2cccc(S(=O)(=O)N[C@@H](Cc3cccc(C(=N)N)c3)C(=O)N3CCC(CCCC(=O)NC)CC3)c2)cc1 [Inhibitor 19] |
| 98 | CNC(=O)CCCC1CCN(C(=O)C(Cc2cccc(C(=N)N)c2)NS(=O)(=O)c2cccc(-n3ncccc3=O)c2)CC1 (stereo not drawn) [Inhibitor 29] |
| 31 | CNC(=O)CCCC1CCN(C(=O)[C@H](Cc2cccc(C(=N)N)c2)NS(=O)(=O)c2cccc(N3CCCCC3=O)c2)CC1 [Inhibitor 30] |
| 24000 | CCc1ccc(-c2cccc(S(=O)(=O)N[C@@H](Cc3cccc(/C(N)=N\O)c3)C(=O)N3CCC(CCCC(=O)NC)CC3)c2)cc1 [Inhibitor 33] |
| 16 | CNC(=O)CCCC1CCN(C(=O)[C@H](Cc2cccc(C(=N)N)c2)NS(=O)(=O)c2cccc(NC(=O)C3CNC3)c2)CC1 [Inhibitor 38] |
| 87 | CNC(=O)CCCC1CCN(C(=O)[C@H](Cc2cccc(C(=N)N)c2)NS(=O)(=O)c2cccc(-c3ccc(C(C)(C)C)cc3)c2)CC1 [Inhibitor 41] |
| 23.5 | CNC(=O)CCCC1CCN(C(=O)[C@H](Cc2cccc(C(=N)N)c2)NS(=O)(=O)c2cccc(-c3ccc(C(C)C)cc3)c2)CC1 [Inhibitor 44] |
| 11 | CNC(=O)CCCC1CCN(C(=O)[C@H](Cc2cccc(C(=N)N)c2)NS(=O)(=O)c2cccc(-c3ccc(N)nc3)c2)CC1 [Inhibitor 46] |
| 0.49 | CNC(=O)CCCC1CCN(C(=O)[C@H](Cc2cccc(C(=N)N)c2)NS(=O)(=O)c2cccc(C3CCC(N)=NC3)c2)CC1 (stereo partly drawn) [Inhibitor 47] |
